# Laboratory results from PubChem BioAssay AID2060912 (Molecular Pharmacology Branch, DTP, NCI, 2025).
# Test system: HUVEC/MSC spheroids viability
# Experiment: Human HUVEC/MSC cell line growth inhibition [KRAS2];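 as to viability, T/C: percent of DMSO vehicle control luminescence so 100% = untreated viability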
# Details: for IC50: curve of first compound; for viability, T/C: stronger effect = lower value
# Excerpt: Multicellular complex tumor spheroid response to RAS pathway inhibitors in combination with a targeted agents in patient-derived cell lines with oncogenic KRAS variants from multiple cancer types
# A high-throughput screen of multi-cell type tumor spheroids was designed to identify active combinations of targeted small molecules and KRAS pathway inhibitors. Complex spheroids include a stromal component modeled by human endothelial cells (HUVEC) and fibroblasts modeled by human mesenchymal stem cells (MSCs). The concentration ranges selected for each drug and investigational agent were based upon clinically achievable concentrations if the clinical Cmax of the agent was known. * [This particular assayID is a followup dataset requested by reviewers of the manuscript. It is a test of the HUVEC and MSC without the tumor cells, and was conducted using different drug plates and a different plate layout.]
# Compounds. The drugs and investigational agents: BI-3406 (NSC825286), BAY-293 (NSC824723), batoprotafib (TNO155; NSC825523), sotorasib (AMG 510; NSC818433), MRTX1257 (NSC819558), elimusertib (BAY 1895344; NSC800525), molibresib (GSK525762; NSC774829), temuterkib (LY3214996; NSC803410), venetoclax (NSC766270), alisertib (NSC759677), olaparib (NSC753686), talazoparib (NSC767125), erdafitinib (NSC781556), ipatasertib (NSC767898), cabozantinib (NSC761068), nintedanib (NSC756659), abemaciclib (NSC768073), docetaxel (NSC628503), trametinib (NSC758246), and sapanisertib (NSC764658) were obtained from the National Cancer Institute (NCI) Developmental Therapeutics Program Chemical Repository. The FDA-approved anticancer drug set is available from the Developmental Therapeutics Program. […] The stock solutions were prepared in dimethyl sulfoxide (DMSO, Sigma-Aldrich, St. Louis, MO, cat. D2650) at 800-fold the tested concentration and stored at -70 degrees C prior to their use. All drugs and investigational agents were tested over a range starting from a high concentration at or near the clinical Cmax and decreasing in half-log increments. If the clinical Cmax for an agent had not been determined, the highest concentration tested was 10 microM.
# Cell Culture. All cells were maintained in an incubator at 37 degrees C and 5% CO2 with 95% humidity. The PDC lines were cultured according to standard operating procedures established by the NCI PDMR (https://pdmr.cancer.gov/sops/default.htm). Briefly, all PDCs were thawed and cultured in Matrigel-coated flasks prepared with a working solution of 1X Ham's F-12 nutrient mix, without supplementation (Invitrogen, Waltham, MA, cat. 11765054), 100 U/mL penicillin-streptomycin (Invitrogen, cat. 15140122), and 2.5% Matrigel (Corning Inc., Corning, NY, cat. 354248) for the first three passages. All PDCs were cultured in complete DMEM/F-12 media containing advanced DMEM/F-12 (Invitrogen, cat. 12634028), 4.9% defined fetal bovine serum, heat inactivated (HyClone Laboratories Inc., Logan, UT, cat. SH30070.03HI), 389 ng/mL hydrocortisone (Sigma-Aldrich, cat. H4001), 9.7 ng/mL human EGF recombinant protein (Invitrogen, cat. PHG0313), 23.4 microg/mL adenine (Sigma-Aldrich, cat. A2786), 97.3 U/mL penicillin-streptomycin (Invitrogen, cat. 15140122), 1.9 mM L-glutamine (Invitrogen, cat. 25030081), and 9.7 microM Y-27632 dihydrochloride (Tocris Bioscience, Bristol, United Kingdom, cat. 1254). The PDCs were cultured in complete DMEM/F12 media without 9.7 microM Y-27632 dihydrochloride for at least two passages prior to the screen. The established cell line HOP-62 was cultured in RPMI 1640 medium, HEPES (Invitrogen, cat. 22400105) with 10% defined fetal bovine serum (HyClone Laboratories Inc., cat. SH30070.03) and 2 mM L-glutamine (Invitrogen, cat. 25030081). The pooled donor HUVEC were cultured in endothelial cell growth medium 2 (PromoCell, Heidelberg, Germany, cat. C-22011) and the hMSC were cultured in mesenchymal stem cell growth medium 2 (PromoCell, cat. C-28009). […]
structure (smiles),measurement,setting,value
CC(=O)OC12COC1CC(O)C1(C)C(=O)C(O)C3=C(C)C(OC(=O)C(O)C(NC(=O)OC(C)(C)C)c4ccccc4)CC(O)(C(OC(=O)c4ccccc4)C21)C3(C)C (centres undefined) + C=CC(=O)N1CCN(c2nc(=O)n(-c3c(C)ccnc3C(C)C)c3nc(-c4c(O)cccc4F)c(F)cc23)C(C)C1,IC50,second compound 0.0316 µM,> 3000 nM
same,IC50,second compound 0.1 µM,> 3000 nM
same,IC50,second compound 0.316 µM,> 3000 nM
same,IC50,second compound 1 µM,> 3000 nM
same,IC50,second compound 3.16 µM,> 3000 nM
same,IC50,second compound 10 µM,> 3000 nM
same,"viability, T/C","second compound 0.0316 µM, first compound 0.00949 µM",57.6%
same,"viability, T/C","second compound 0.0316 µM, first compound 0.03 µM",67.8%
same,"viability, T/C","second compound 0.0316 µM, first compound 0.0949 µM",47.2%
same,"viability, T/C","second compound 0.0316 µM, first compound 0.3 µM",41.4%
same,"viability, T/C","second compound 0.0316 µM, first compound 0.949 µM",63%
same,"viability, T/C","second compound 0.0316 µM, first compound 3 µM",55.2%
same,"viability, T/C","second compound 0.1 µM, first compound 0.00949 µM",65.5%
same,"viability, T/C","second compound 0.1 µM, first compound 0.03 µM",52.8%
same,"viability, T/C","second compound 0.1 µM, first compound 0.0949 µM",57.4%
same,"viability, T/C","second compound 0.1 µM, first compound 0.3 µM",54.1%
same,"viability, T/C","second compound 0.1 µM, first compound 0.949 µM",57.3%
same,"viability, T/C","second compound 0.1 µM, first compound 3 µM",63.7%
same,"viability, T/C","second compound 0.316 µM, first compound 0.00949 µM",54.5%
same,"viability, T/C","second compound 0.316 µM, first compound 0.03 µM",58.9%
same,"viability, T/C","second compound 0.316 µM, first compound 0.0949 µM",61.6%
same,"viability, T/C","second compound 0.316 µM, first compound 0.3 µM",57.5%
same,"viability, T/C","second compound 0.316 µM, first compound 0.949 µM",65%
same,"viability, T/C","second compound 0.316 µM, first compound 3 µM",70.3%
same,"viability, T/C","second compound 1 µM, first compound 0.00949 µM",57.1%
same,"viability, T/C","second compound 1 µM, first compound 0.03 µM",61.4%
same,"viability, T/C","second compound 1 µM, first compound 0.0949 µM",59.2%
same,"viability, T/C","second compound 1 µM, first compound 0.3 µM",59.8%
same,"viability, T/C","second compound 1 µM, first compound 0.949 µM",62.9%
same,"viability, T/C","second compound 1 µM, first compound 3 µM",67.9%
same,"viability, T/C","second compound 3.16 µM, first compound 0.00949 µM",66%
same,"viability, T/C","second compound 3.16 µM, first compound 0.03 µM",82.4%
same,"viability, T/C","second compound 3.16 µM, first compound 0.0949 µM",64.8%
same,"viability, T/C","second compound 3.16 µM, first compound 0.3 µM",84.4%
same,"viability, T/C","second compound 3.16 µM, first compound 0.949 µM",83.4%
same,"viability, T/C","second compound 3.16 µM, first compound 3 µM",101%
same,"viability, T/C","second compound 10 µM, first compound 0.00949 µM",100%
same,"viability, T/C","second compound 10 µM, first compound 0.03 µM",113%
same,"viability, T/C","second compound 10 µM, first compound 0.0949 µM",122%
same,"viability, T/C","second compound 10 µM, first compound 0.3 µM",113%
same,"viability, T/C","second compound 10 µM, first compound 0.949 µM",111%
same,"viability, T/C","second compound 10 µM, first compound 3 µM",124%
CN(C)C/C=C/C(=O)Nc1cc2c(Nc3ccc(F)c(Cl)c3)ncnc2cc1O[C@H]1CCOC1 + C=CC(=O)N1CCN(c2nc(=O)n(-c3c(C)ccnc3C(C)C)c3nc(-c4c(O)cccc4F)c(F)cc23)C(C)C1,IC50,second compound 0.0316 µM,> 100 nM
same,IC50,second compound 0.1 µM,> 100 nM
same,IC50,second compound 0.316 µM,> 100 nM
same,IC50,second compound 1 µM,> 100 nM
same,IC50,second compound 3.16 µM,> 100 nM
same,IC50,second compound 10 µM,> 100 nM
same,"viability, T/C","second compound 0.0316 µM, first compound 0.000316 µM",98.4%
same,"viability, T/C","second compound 0.0316 µM, first compound 0.001 µM",115%
same,"viability, T/C","second compound 0.0316 µM, first compound 0.00316 µM",97%
same,"viability, T/C","second compound 0.0316 µM, first compound 0.01 µM",84.3%
same,"viability, T/C","second compound 0.0316 µM, first compound 0.0316 µM",91.4%
same,"viability, T/C","second compound 0.0316 µM, first compound 0.1 µM",88.9%
same,"viability, T/C","second compound 0.1 µM, first compound 0.000316 µM",116%
same,"viability, T/C","second compound 0.1 µM, first compound 0.001 µM",107%
same,"viability, T/C","second compound 0.1 µM, first compound 0.00316 µM",85.7%
same,"viability, T/C","second compound 0.1 µM, first compound 0.01 µM",80.1%
same,"viability, T/C","second compound 0.1 µM, first compound 0.0316 µM",111%
same,"viability, T/C","second compound 0.1 µM, first compound 0.1 µM",81%
same,"viability, T/C","second compound 0.316 µM, first compound 0.000316 µM",108%
same,"viability, T/C","second compound 0.316 µM, first compound 0.001 µM",109%
same,"viability, T/C","second compound 0.316 µM, first compound 0.00316 µM",87.3%
same,"viability, T/C","second compound 0.316 µM, first compound 0.01 µM",92.8%
same,"viability, T/C","second compound 0.316 µM, first compound 0.0316 µM",96.8%
same,"viability, T/C","second compound 0.316 µM, first compound 0.1 µM",100%
same,"viability, T/C","second compound 1 µM, first compound 0.000316 µM",107%
same,"viability, T/C","second compound 1 µM, first compound 0.001 µM",119%
same,"viability, T/C","second compound 1 µM, first compound 0.00316 µM",105%
same,"viability, T/C","second compound 1 µM, first compound 0.01 µM",124%
same,"viability, T/C","second compound 1 µM, first compound 0.0316 µM",112%
same,"viability, T/C","second compound 1 µM, first compound 0.1 µM",110%
same,"viability, T/C","second compound 3.16 µM, first compound 0.000316 µM",107%
same,"viability, T/C","second compound 3.16 µM, first compound 0.001 µM",129%
same,"viability, T/C","second compound 3.16 µM, first compound 0.00316 µM",114%
same,"viability, T/C","second compound 3.16 µM, first compound 0.01 µM",118%
same,"viability, T/C","second compound 3.16 µM, first compound 0.0316 µM",113%
same,"viability, T/C","second compound 3.16 µM, first compound 0.1 µM",131%
same,"viability, T/C","second compound 10 µM, first compound 0.000316 µM",128%
same,"viability, T/C","second compound 10 µM, first compound 0.001 µM",122%
same,"viability, T/C","second compound 10 µM, first compound 0.00316 µM",145%
same,"viability, T/C","second compound 10 µM, first compound 0.01 µM",97.3%
same,"viability, T/C","second compound 10 µM, first compound 0.0316 µM",124%
same,"viability, T/C","second compound 10 µM, first compound 0.1 µM",106%
